Experiment [1] has as its target T1, recombinant BACE1 protein (Homo sapiens, UniProt P56817).
T1 construct: recombinant BACE1 protein in a final concentration of 0.04 μg/ml
Kind of experiment: BACE1 biochemical FRET based assay. The following applies: 450 min at room temperature; for IC50: pH 5.0, read-out: Biochemical FRET based assay pIC50 (converted). An excerpt: (§1) This assay is a Fluorescence Resonance Energy Transfer Assay (FRET) based assay. The substrate for this assay is an APP derived 13 amino acids peptide that contains the ‘Swedish’ Lys-Met/Asn-Leu mutation of the amyloid precursor protein (APP) beta-secretase cleavage site. This substrate also contains two fluorophores: (7-methoxycoumarin-4-yl) acetic acid (Mca) is a fluorescent donor with excitation wavelength at 320 nm and emission at 405 nm and 2,4-Dinitrophenyl (Dnp) is a proprietary quencher acceptor. […] Upon cleavage by BACE1, the fluorophore Mca is separated from the quenching group Dnp, restoring the full fluorescence yield of the donor. The increase in fluorescence is linearly related to the rate of proteolysis.
Briefly in a 384-well format recombinant BACE1 protein in a final concentration of 0.04 μg/ml is incubated for 450 minutes at room temperature with 20 μM substrate in incubation buffer (50 mM Citrate buffer pH 5.0, 0.05% PEG) in the presence of compound or DMSO. Next the amount of proteolysis is directly measured by fluorescence measurement (excitation at 320 nm and emission at 405 nm) at different incubation times (0, 30, 60, 90, 120 and 450 min). For every experiment a time curve (every 30 min between 0 min and 120 min) is used to determine the time where we find the lowest basal signal of the high control. The signal at this time (Tx) is used to subtract from the signal at 450 min. Results are expressed in RFU, as difference between T450 and Tx.
(§2) A best-fit curve is fitted by a minimum sum of squares method to the plot of % Controlmin versus compound concentration. From this an IC50 value (inhibitory concentration causing 50% inhibition of activity) can be obtained.

Experiment [2] deals with Abeta 1-42 produced and secreted by human neuroblastoma SKNBE2 cells expressing hAPP695. The experiment is described as follows: Cellular αLisa assay in SKNBE2 cells, Abeta 1-42. Format: cell-based. The following applies: 18 hours incubation; for IC50: Homo sapiens, SKNBE2, 18 h, read-out: Cellular αLisa assay in SKNBE2 cells Abeta 42 pIC50 (converted). The method, then: (§3) Cellular αLisa Assay in Sknbe2 Cells In two αLisa assays the levels of Abeta total and Abeta 1-42 produced and secreted into the medium of human neuroblastoma SKNBE2 cells are quantified. The assay is based on the human neuroblastoma SKNBE2 expressing the wild type Amyloid Precursor Protein (hAPP695). The compounds are diluted and added to these cells, incubated for 18 hours and then measurements of Abeta 1-42 and Abeta total are taken. Abeta total and Abeta 1-42 are measured by sandwich αLisa. αLisa is a sandwich assay using biotinylated antibody AbN/25 attached to streptavidin coated beads and antibody Ab4G8 or cAb42/26 conjugated acceptor beads for the detection of Abeta total and Abeta 1-42 respectively. In the presence of Abeta total or Abeta 1-42, the beads come into close proximity. The excitation of the donor beads provokes the release of singlet oxygen molecules that trigger a cascade of energy transfer in the acceptor beads, resulting in light emission. Light emission is measured after 1 hour incubation (excitation at […] and emission at 615 nm).
as §2

The target in experiment [3] is T2, recombinant BACE2 protein (Homo sapiens, UniProt Q9Y5Z0).
T2 construct: recombinant BACE2 protein in a final concentration of 0.4 μg/ml
T2 sequence (Q9Y5Z0 63-518): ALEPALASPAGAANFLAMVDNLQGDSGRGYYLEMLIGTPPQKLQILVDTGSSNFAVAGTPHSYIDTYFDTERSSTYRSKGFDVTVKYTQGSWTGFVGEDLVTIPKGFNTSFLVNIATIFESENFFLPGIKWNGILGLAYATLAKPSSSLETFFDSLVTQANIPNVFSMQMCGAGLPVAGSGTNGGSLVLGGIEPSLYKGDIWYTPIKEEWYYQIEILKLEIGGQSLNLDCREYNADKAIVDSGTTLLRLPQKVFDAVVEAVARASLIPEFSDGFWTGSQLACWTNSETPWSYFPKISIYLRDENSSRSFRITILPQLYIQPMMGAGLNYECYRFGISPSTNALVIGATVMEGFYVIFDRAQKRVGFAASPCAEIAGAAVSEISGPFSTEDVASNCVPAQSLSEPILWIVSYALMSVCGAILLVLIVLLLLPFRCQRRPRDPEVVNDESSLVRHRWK
Kind of experiment: BACE2 biochemical FRET based assay. To be noted: 450 min at room temperature; for IC50: pH 5.0, read-out: Biochemical FRET based assay pIC50 (converted).
Source text: as §1, with “assay” for “assay is an APP derived 13 amino acids peptide that”, “the beta-secretase,” for “BACE1,”
Briefly in a 384-well format recombinant BACE2 protein in a final concentration of 0.4 μg/ml is incubated for 450 minutes at room temperature with […] substrate in incubation buffer (50 mM Citrate buffer pH 5.0, 0.05% PEG, no DMSO) in the absence or presence of compound. Next the amount of proteolysis is directly measured by fluorescence measurement at T=0 and T=450 (excitation at 320 nm and emission at 405 nm). Results are expressed in RFU (Relative Fluorescence Units), as difference between T450 and TO.
as §2

Experiment [4] deals with Abeta total produced and secreted by human neuroblastoma SKNBE2 cells expressing hAPP695. Kind of experiment: Cellular αLisa assay in SKNBE2 cells, Abeta total. Format: cell-based. The following applies: 18 hours incubation, read-out: Cellular αLisa assay in SKNBE2 cells Abeta total pIC50 (converted). The protocol:
as §3, §2

In a further experiment the target is β-secretase I (BACE1) (Homo sapiens, UniProt P56817). The experiment is described as follows: Automated (CyclOps) biochemical assay BACE1.
Sequence of β-secretase I (BACE1) (P56817 46-501): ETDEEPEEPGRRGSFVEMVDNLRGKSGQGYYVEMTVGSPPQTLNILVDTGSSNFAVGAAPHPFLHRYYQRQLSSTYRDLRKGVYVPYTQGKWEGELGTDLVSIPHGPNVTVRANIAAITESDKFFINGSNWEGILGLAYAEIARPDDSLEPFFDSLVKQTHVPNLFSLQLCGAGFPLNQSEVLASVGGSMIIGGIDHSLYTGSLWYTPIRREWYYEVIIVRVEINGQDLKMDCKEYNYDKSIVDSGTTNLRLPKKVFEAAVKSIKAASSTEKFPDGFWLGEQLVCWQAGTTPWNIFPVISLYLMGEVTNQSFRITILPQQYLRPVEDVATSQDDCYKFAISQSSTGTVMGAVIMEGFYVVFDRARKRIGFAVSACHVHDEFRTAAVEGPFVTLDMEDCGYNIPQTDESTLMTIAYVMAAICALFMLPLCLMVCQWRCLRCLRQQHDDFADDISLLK
The target in another experiment is T3, β-secretase II (BACE2) (Homo sapiens, UniProt Q9Y5Z0).
T3 sequence (Q9Y5Z0 63-518): T2 sequence (Q9Y5Z0 63-518)
Kind of experiment: Automated (CyclOps) biochemical assay BACE2.

T1 sequence (P56817 46-501): as above

In the case of `COc1ncc(C(=O)NC2CC2)c2c1C[C@]1(c3ccc(F)cc3F)N=C(N)SC[C@@H]1C2` [Compound 1], the “Biochemical FRET based assay pIC50” value in experiment [1] (pH 5.0) came out at 7.12; in experiment [3] (pH 5.0), 6.77. For the same molecule, the IC50 in experiment [2] was 9.55 nM.
Take `COc1ncc(C(=O)NC2CC2)c2c1C[C@]1(c3ccc(F)cc3F)N=C(N)SC[C@@H]1C2` [Compound 1a]: the IC50 in experiment [1] is 66.1 nM; in experiment [2], 19.1 nM; in experiment [4], 22.9 nM; in experiment [3], 166 nM; on β-secretase I (BACE1) it was 39.8 nM; against β-secretase II (BACE2) it was 72.4 nM.
Regarding `COc1ncc(C(=O)N2CCOCC2)c2c1C[C@]1(c3ccc(F)cc3F)N=C(N)SC[C@@H]1C2` [Compound 2], the results for the IC50 in experiment [1], in experiment [2] and in experiment [3] were 219 nM, 47.9 nM and 1510 nM, respectively.
Regarding `COc1ncc(C(=O)N2CCOCC2)c2c1CC1(c3ccc(F)cc3F)N=C(N)SCC1C2` (stereo not shown) [Compound 2a], the IC50 in experiment [1] is 240 nM; in experiment [2] it was 46.8 nM; in experiment [4], 50.1 nM; in experiment [3], 1450 nM; on β-secretase I (BACE1) it was 57.5 nM; on β-secretase II (BACE2), 324 nM.
For `COc1ncc(C(=O)Nc2cccnc2)c2c1C[C@]1(c3ccc(F)cc3F)N=C(N)SC[C@@H]1C2` [Compound 3], the IC50 was 75.9 nM in experiment [1], 56.2 nM in experiment [2] and 282 nM in experiment [3].
As for `COc1ncc(C(=O)N2CCC(C#N)CC2)c2c1C[C@]1(c3ccc(F)cc3F)N=C(N)SC[C@@H]1C2` [Compound 22], the IC50 in experiment [1] is 129 nM; in experiment [2] it was 85.1 nM; in experiment [3] it was 1100 nM; at β-secretase I (BACE1) it was 34.7 nM; on β-secretase II (BACE2), 355 nM.
On to `COc1ncc(C(=O)N2CCC(c3ccncc3)C2)c2c1C[C@]1(c3ccc(F)cc3F)N=C(N)SC[C@@H]1C2` (stereo partly shown) [Compound 28], for which the IC50 was 20.4 nM in experiment [1], 28.8 nM in experiment [2] and 977 nM in experiment [3].
Regarding `COc1ncc(CNC(=O)c2ccncc2)c2c1C[C@]1(c3ccc(F)cc3F)N=C(N)SC[C@@H]1C2` [Compound 30], the IC50 is 29.5 nM in experiment [1] and 355 nM in experiment [3]. Moreover, the “Cellular αLisa assay in SKNBE2 cells Abeta 42 pIC50” value (from here on “Cellular αLisa assay”) in experiment [2] came to 7.31.
For `COc1ncc(CNC(=O)c2ccncc2)c2c1C[C@]1(c3ccc(F)cc3F)N=C(N)SC[C@@H]1C2` [Compound 30a], the IC50 in experiment [1] is 66.1 nM; in experiment [4], 81.3 nM; in experiment [3] it was 692 nM; on β-secretase I (BACE1), 41.7 nM; against β-secretase II (BACE2) it was 468 nM. The “Cellular αLisa assay” value in experiment [2] amounted to 7.
With `COc1ncc(CNC(=O)C2CC2)c2c1C[C@]1(c3ccc(F)cc3F)N=C(N)SC[C@@H]1C2` [Compound 31], the IC50 was 81.3 nM in experiment [1], 33.1 nM in experiment [2] and 105 nM in experiment [3].
For the molecule `COc1ncc(CNC(=O)C2CC2)c2c1C[C@]1(c3ccc(F)cc3F)N=C(N)SC[C@@H]1C2` [Compound 31a], the IC50 in experiment [1] was 112 nM; in experiment [4], 43.7 nM; in experiment [3], 126 nM; at β-secretase I (BACE1), 70.8 nM; against β-secretase II (BACE2), 87.1 nM. In addition, the “Cellular αLisa assay” value in experiment [2] was 7.39.
For `COc1ncc(CNC(=O)c2cc(C)no2)c2c1C[C@]1(c3ccc(F)cc3F)N=C(N)SC[C@@H]1C2` [Compound 32], the IC50 in experiment [1] is 110 nM; in experiment [3], 309 nM. Further, the “Cellular αLisa assay” value in experiment [2] came out at 7.41.
In the case of `COc1ncc(CNC(=O)c2cc(C)no2)c2c1C[C@]1(c3ccc(F)cc3F)N=C(N)SC[C@@H]1C2` [Compound 32a], the IC50 is 182 nM in experiment [1]; 95.5 nM in experiment [4]; 589 nM in experiment [3]; 63.1 nM on β-secretase I (BACE1); 174 nM against β-secretase II (BACE2). Besides, the “Cellular αLisa assay” value in experiment [2] is recorded as 7.07.
Turning to `COc1ncc(CNC(=O)c2nccnc2Cl)c2c1C[C@]1(c3ccc(F)cc3F)N=C(N)SC[C@@H]1C2` [Compound 48], the IC50 in experiment [1] was 21.9 nM; in experiment [2] it was 16.6 nM; in experiment [3], 200 nM; against β-secretase I (BACE1), 12.2 nM; against β-secretase II (BACE2), 72.4 nM.

These data come from patent publication US20190389882A1, “INHIBITORS OF BETA SECRETASE” (Janssen Pharmaceutica NV, priority 2017, published 2019).
